Read-outs that look alike come from different tables or passages of the source.
Key:
[1] = system: rat; settings: Sprague-Dawley, in vivo
Text: (§4) The rats (Sprague-Dawley, B&K, Sollentuna, Sweden) were anaesthetized by midazolam and fentanyl-fluanisone combination anaesthesia and then chronically catheterized according to the method described by Yaksh and Rudy (Physiology & Behaviour 17,1031-1036, 1976). Briefly, the atlanto-occipital membrane of the spine (directly below the skull) was incised. A polyethylene catheter (PE10 Intramedic, USA) filled with sterile saline was carefully and slowly pushed 8 cm into the spinal cavity. The end of the catheter is known to reach the close proximity of the lumbar enlargement of the spine. The location of the end of the catheter was tested by administering 0.5 mg lidocain approximately 3 days after catheterization. If both hindlegs were paralyzed, the rat was used in the drug tests.
Effects on gastrointestinal motility were measured in separate animals as follows (the charcoal propulsion test). The rats (8/group) were fasted overnight and were randomized according to the latin square design. 30 minutes after the administration of the drugs, a 10% charcoal suspension in 0.25% Na-carboxy-methylcellulose was administered perorally by a gavage. […] The distance of the charcoal suspension from the pylorus in the intestine was measured. […] The ED50 value of the dose-response graph was determined by the Graph Pad Prism v. […]

[2] = system: rat; test: Tail-flick analgesia test; assay type: in vivo
Procedure: (§1) There were 8 rats in each group tested.
Tail-flick analgesia was tested by a tail-flick analgesy meter (Ugo Basile, Italy). The analgesia testing was done no earlier than four days after the catheterization. The rats were always habituated to the immobilization chambers that were used in the analgesia measurements. The tail of the rat was outside the chamber and it was placed on the heating spot of the apparatus. Thus, the hot infrared beam would hit the tail. When the rat reacted and moved the tail away from the beam, the analgesy meter automatically measured the latency of the tail-withdrawal. The tail-flick measurement was always repeated three times, one after another, to diminish the effect of a possible unspecific reaction. […] The maximal latency (cut-off time) was set to 5 seconds in order to prevent burns of the tail. The predrug tail-flick latencies were first measured, and then the rats were administered 10 μl of the drug solution by a Hamilton syringe. Immediately thereafter the catheter was washed with 10 μl of sterile saline, and the tip was sealed by a lighter. The analgesia was tested after 30 minutes from the administration of the drug by measuring tail-flick analgesia as described above.
The tail-flick analgesia data were represented as MPE% values (maximum possible effect %). The tail-flick latencies (mean of three measurements) were calculated as MPE% values as follows: (postdrug latency−predrug latency)/(cut-off time−predrug latency)×100%. The dose-response curves were drawn of the MPE% values, and the dose was on a logarithmic scale (see FIG. 1). […] 1.03 (San Diego, USA) software.
(§2) The analgesic activity and sedative effect after intravenous (to the tail vein) and subcutaneous administration were studied according to the methods described in Example 2.

[3] = physchem
Procedure: The hydrochloride salts of the above compounds were shaken for 90 minutes in a separatory funnel at room temperature with equal volumes (1:1, v/v) of an organic phase (water saturated 1-octanol) and an aqueous solution (0.1 M HCI or 67 mM phosphate buffer pH 7.4), separating the two phases. The quantitations of the amounts of the studied compounds were performed by the RP-HPLC (reverse phase high pressure liquid chromatography) technique. […] As a mobile phase, methanol: 15 mM phosphate buffer pH2 at the ratio 50:50 (v/v) was used.
The partition coefficient (P) is a ratio of the equilibrium concentrations of a solute in a lipophilic environment (1-octanol) and water (P=coct/cwater). The logarithm of the partition coefficient (logP) is used as a lipophilicity parameter for a neutral molecule. D is the partition coefficient measured at a pH where the molecules are partly or totally ionized.

[4] = system: rat; test: Motor coordination: rotarod treadmill; settings: intrathecal, 15 minutes after injection
Text: as §4
(§5) The effect on motor coordination was evaluated by a rotarod treadmill for rats (Ugo Basile, Italy). It consists of four drums (diameter of 70 mm) separated by five flanges. The drums were adjusted to rotate 4 revolutions per minute. The rod was rotated against the direction of the rat, so it had to walk forward to stay on the rod. […]
(§6) Fifteen minutes after the drug injection, the rat was placed on the rotarod apparatus, and the falling time was measured. […] The dose-response curves were drawn on a logarithmic scale, and the ED50 values were determined graphically from these.

[5] = in vivo; settings: Sprague-Dawley, rat
Procedure: as §1
(§3) Sedative effects (effects on motor activity) were measured in a polypropylene animal cage (38×22×15 cm) with a transparent polypropylene lid by Photobeam Activity System (PAS, Cage Rack, San Diego Instruments, San Diego, USA). The system consists of 16 separate enclosures connected to a computer control unit. There were three photobeams in each enclosure. The enclosures surrounded the cage at the height of 5 cm. The breaking of beams was counted as locomotor activity.
as §2

[6] = system: rat; test: in vivo
Procedure: as §1, §3, §2

[7] = system: rat; settings: Sprague-Dawley, in vivo, 15 min
Text: as §4, §5, §6

Molecule	ED50 Inhib. of GI motility [1]	ED50 ([2]; central, intrathecal (it), Table 2 result per rat multiplied by 3)	ED50 Analgesia (tail-flick test) ([2]; intrathecal, 30 minutes after administration)	ED50 ([2]; intravenous (iv))	ED50 ([2]; subcutaneous (sc))	logD at 90 min ([3]; pH 1)	logD at 90 min ([3]; pH 7.4)	ED50 Loss of motor coordin. (decrease in rotarod performance) [4]	ED50 at 10 min [5]	ED50 at 10 min ([5]; sc)	Sedation at an analgesic dose [6]	ED50 Loss of motor coordin. (decrease in rotarod performance) [7]	ED50 Analgesia (tail-flick test) ([2]; in vivo)
Oc1ccc2c(c1)C(Cc1c[nH]cn1)CC2 (centres unmarked) [Compound A, 3-(1H-imidazol-4-ylmethyl)-indan-5-ol]	5.7 µg/rat	0.0021 mg/kg	0.7 µg/rat	> 0.03 mg/kg	> 0.3 mg/kg	-0.69	1.91	> 30 µg/rat	0.09 mg/kg	0.08 mg/kg	not to induce sedation		
Clc1cccc(Cl)c1N=C1NCCN1 [Compound B, clonidine, reference compound]	3.5 µg/rat											>10 g/rat	
clonidine [Compound B, reference compound]													6.4 µg/rat

Reference: patent US6495584B1, “Use of 3-(1H-imidazol-4-ylmethyl)-indan-5-ol in the manufacture of a medicament for intraspinal, intrathecal or epidural administration” (Orion Corporation, priority 1998, dated 2002)
